Values joined by “and” are separate entries in the source; they are usually repeats but may differ in a detail not shown here. Equal values may be shown once.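 Five compound concentrations were applied to cells in 96-well plates for 48 hours; endpoints were derived by simple linear interpolation of the resulting dose-response curve. At the GI50, growth is halved. TGI: concentration producing complete growth inhibition.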
What was measured:
Assay in all cases: growth of human tumour cells (NCI), 48 h
[1] = system: SNB-19 CNS
[2] = system: HOP-92 NSCLC
[3] = system: KM12 colon
[4] = system: CAKI-1 renal
[5] = system: M14 melanoma
[6] = system: A498 renal
[7] = system: SF-268 CNS
[8] = system: OVCAR-8 ovarian
[9] = system: COLO 205 colon
[10] = system: IGROV1 ovarian

Row | Structure (SMILES) | TGI [1] | TGI [2] | TGI [3] | TGI [4] | TGI [5] | TGI [6] | TGI [7] | TGI [8] | TGI [9] | TGI [10] | GI50 [1] | GI50 [2] | GI50 [3] | GI50 [4] | GI50 [5] | GI50 [6] | GI50 [7] | GI50 [8] | GI50 [9] | GI50 [10]
1 | CN(C)CC1CCCCCC(Br)C1=O (centres undefined) | > 100 µM | 22.2 µM | 41 µM | 16 µM | 37.5 µM | > 100 µM | > 66.1 µM | 32.8 µM | 31.6 µM | > 69.4 µM | – | – | – | – | – | – | – | – | – | –
2 | CC(C)=CC(=O)N[C@@H]1CC2CCC3C(CC[C@@]4(C)C3CC[C@@H]4C(C)N(C)C)[C@@]2(C)C[C@@H]1O (some centres undefined) | 60.4 µM | 24.2 µM | 30.1 µM | 23.9 µM | 3.69 µM | 28.8 µM | 12.2 µM | > 53.2 µM | 3.71 µM | 25.1 µM | 17.8 µM | 2.37 µM | 4.41 µM | 5.96 µM | 1.86 µM | 5.19 µM | 2.71 µM | 12.8 µM | 1.79 µM | 5.54 µM
3 | O=C(Oc1ccccc1Cl)c1ccccc1Nc1cccc(C(F)(F)F)c1 | > 100 µM | 38.2 µM | 44.6 µM | 49 µM | 38.9 µM | 54.8 µM | 60.6 µM | > 100 µM | > 100 µM | > 100 µM | 73.2 µM | 5.81 µM | 19.6 µM | 20.7 µM | 13.9 µM | 24.8 µM | 20.5 µM | 32 µM | 28 µM | 28 µM
4 | O=C1CC(c2ccsc2)c2snc(-c3ccc(Cl)cc3)c2N1 (centres undefined) | > 100 µM | 81.8 µM | > 100 µM | > 100 µM | > 100 µM | 7.94 µM | > 100 µM | > 100 µM | 2.57 µM | > 100 µM | 3.78 µM | 3.87 µM | 0.385 µM | 1.03 µM | 0.804 µM | 1.09 µM | 4.87 µM | 3.01 µM | 0.527 µM | 2.87 µM
5 | O=C1/C(=C/c2ccc(Cl)cc2)CN(C(=O)CCN2CCC(=NO)CC2)C/C1=C\c1ccc(Cl)cc1 | 2.17 µM | 3.54 µM | 0.935 µM | 1.85 µM | 2.3 µM | 2.41 µM | 2.98 µM | 2.62 µM | 1.32 µM | 2.05 µM | 0.817 µM | 1.64 µM | 0.388 µM | 0.649 µM | 0.754 µM | 1.15 µM | 0.942 µM | 0.823 µM | 0.345 µM | 0.807 µM
6 | CCCCCCCCCCCC1=NC(C)(C)CN1CC(C)O (centres undefined) | 25.8 µM | 13.6 µM | 4.84 µM | 12.2 µM | 3.1 µM | 22.8 µM | 19.9 µM | 25 µM | 3.05 µM | 4.75 µM | 12.9 µM | 2.06 µM | 2.25 µM | 2.97 µM | 1.62 µM | 10 µM | 7.35 µM | 8.89 µM | 1.68 µM | 1.89 µM
7 | Clc1ccc2nc(Cl)c3ccccc3c2c1 | 40.2 µM | 29.7 µM | > 100 µM | > 100 µM | > 100 µM | 9.85 µM | > 100 µM | > 100 µM | > 100 µM | 86.8 µM | 9.26 µM | 11.9 µM | 15.4 µM | > 100 µM | > 100 µM | 2.22 µM | 17.2 µM | 11.8 µM | 46.8 µM | 6.21 µM
8 | CC#CC#C/C=C1\C=CC2(OC=CC2OC(C)=O)O1 (centres undefined) | > 100 µM | 51.6 µM and 44.1 µM | 63.7 µM and 54.8 µM | 31.2 µM | > 100 µM and 37.9 µM | > 100 µM | 85.4 µM and 46.1 µM | > 100 µM and 51.7 µM | 28.2 µM and 33.3 µM | > 100 µM | – | – | – | – | – | – | – | – | – | –
9 | CCC(C)c1cccc(C)c1NC(=O)C(=O)Cc1nc2ccccc2s1 (centres undefined) | > 100 µM | > 100 µM | > 100 µM | > 100 µM | > 100 µM | > 100 µM | > 100 µM | > 100 µM | > 100 µM | > 100 µM | – | – | – | – | – | – | – | – | – | –
10 | CCOC(=O)c1ccccc1SC(C[N+](=O)[O-])c1ccccc1 (centres undefined) | 23.9 µM | 21.9 µM | 10.4 µM | 31.2 µM | 4.43 µM | 16 µM | 19.2 µM | 22.5 µM | 13 µM | 15 µM | 11.7 µM | 6.94 µM | 3.21 µM | 14.8 µM | 2.01 µM | 3.63 µM | 6.06 µM | 10.5 µM | 3.6 µM | 3.88 µM
11 | O=C(/C=C/c1ccccc1O)c1cccc2ccccc12 | > 100 µM | > 100 µM | > 100 µM | > 100 µM | > 100 µM | > 100 µM | > 100 µM | > 100 µM | > 68.6 µM | > 100 µM | – | – | – | – | – | – | – | – | – | –
12 | Cc1ccc2nc3c(n2c1)C(=O)C(=O)c1ccccc1-3 | 1.58 µM | 2.17 µM | 8.28 µM | 2.71 µM | 0.34 µM | 2.71 µM | 4.01 µM | 0.655 µM | 3.76 µM | – | 0.565 µM | 0.71 µM | 0.574 µM | 1.28 µM | 0.183 µM | 1.37 µM | 0.4 µM | 0.238 µM | 1.91 µM | 0.319 µM
13 | COC1C(CO)OC(n2c3c(Cl)cccc3c3c4c(c5c6cccc(Cl)c6[nH]c5c32)C(=O)NC4=O)C(O)C1O (centres undefined) | > 100 µM | 4.88 µM | > 58.6 µM | 0.565 µM | 10.7 µM | 0.688 µM | > 51.7 µM | 16.6 µM | 61.4 µM | 7.76 µM | – | – | – | – | – | – | – | – | – | –
14 | CCCCCCCCCCCCCCCC(=O)OCC1OC(OC)C(NC(=O)N(CCCl)N=O)C(O)C1O (centres undefined) | > 67.2 µM | 47.8 µM | 56.2 µM | 45.4 µM | 36.4 µM | 61.3 µM | 37.4 µM | 45.3 µM | 47.4 µM | 54 µM | – | – | – | – | – | – | – | – | – | –
15 | Nc1c(C(=O)NC23CC4CC(CC(C4)C2)C3)[n+]([O-])c2ccccc2[n+]1[O-] | > 100 µM | > 100 µM | > 100 µM | > 100 µM | > 100 µM | > 100 µM | > 100 µM | > 100 µM | > 100 µM | > 100 µM | – | – | – | – | – | – | – | – | – | –
